# In patent US20030143645A1, “Quinone reductase 2 and aldehyde dehydrogenase as therapeutic targets” (priority 2001, published 2003):
# Columns and labels:
# [1] = test system: purine binding proteome (hALDH1 and hQR2); experiment: ATP affinity array / ATP-Sepharose displacement elution of RBC purine binding proteome; design: species or system human
# Protocol: ATP-affinity array chromatography. In whole mouse experiments, the animal (except for its tail, feet, skin and intestines) was frozen in liquid N2 and blended in buffer A containing 50 mM Hepes, pH 7.5, 50 mM NaCl, 10 mM MgCl2, 0.1% NONIDET- P40, 1 mM dithiothreitol, 1 μg/ml leupeptin, 100 μg/ml pefabloc and 10 μg/ml aprotinin. Mouse lysate was clarified by centrifugation for 1 hr at 100,000×g. For infected and non-infected RBC's˜1.5×10^9 cells were mixed with an equal volume of 2×buffer A, rocked for 30 min at 4° C., and clarified by centrifugation for 1 hr at 100,000×g. Supernatants were dialyzed overnight against 50 mM Hepes, pH 7.5, 50 mM NaCl, 10 mM MgCl2 and 1 mM dithiothreitol. […] Proteins were resolved by 12% SDS-PAGE and visualized by staining either with Coomassie brilliant Blue R-250 or silver nitrate. Alternatively, proteins were transferred to membrane GeneMate (Kaysville, Utah) in transfer buffer (25 mM Tris, 200 mM glycine, 20% methanol, and 0.01% SDS) for mixed peptide sequencing (Damer et al, J. Biol. Chem. 273:24396 (1998)). hALDH 1 and hQR2 purification and activity assays. Fresh human red blood cells (RBC) were obtained from Valley Biomedical, washed twice with PBS, and lysed in buffer B (0.1% Triton X, 50 mM Tris pH 7.5, 125 mM NaCl, 1 μg/mL aprotonin, 1 μg/mL pepstatin and 10 μg/mL PEFABLOC). Lysates were centrifuged twice at 125,000×g for 1 hr at 4° C. Cleared supernatant was filtered through a […] filter and loaded onto PQ-Sepharose. Pure hALDH was eluted with 5 mM NADH and pure hQR2 with 5 mM NMeN. The eluants were dialyzed overnight at 4° C. against 25 mM Tris pH 8.0 and 1 mM DTT. hALDHl was assayed as described in Table 2. Purified hQR2 was assayed at 22° C. in 100 μM N-methyldihydronicotinamide, 30 μM menadione, 0.1% Triton X-100, 50 mM Tris pH 8.5, 100 μM dicoumarol (unless stated otherwise). N-methyldihydronicotinamide was synthesized (Ortiz-Maldonado et al, Biochemistry 38(50):16636-16647 (1999)) and stored in 100 mM Tris-sulfate pH 8.0.
# An ATP affinity array was charged with RBC and P. falciparum (blood stage) infected RBC extract.
# chromatography. P. falciparum-infected or non-infected RBCs were lysed by mixing with an equal volume of 2×buffer A and rocking for 30 min at 4° C. 1×buffer A: 50 mM Hepes, pH 7.5, 50 mM NaCl, 10 mM MgCl2, 0.1% NONIDET-P40, 1 mM dithiothreitol, 1 μg/ml leupeptin, 100 μg/ml pefabloc and 1 μg/ml aprotinin. […] Proteins were resolved by 12% SDS-PAGE and visualized by staining with Coomassie brilliant blue R-250 or silver nitrate. Alternatively, proteins were transferred to PVM membrane (Kaysville, Utah) for mixed peptide sequencing (Damer et al, J. Biol. Chem. 273(38):24396-24405 (1998)).
# To better understand the mechanism of the quinolines, an attempt was made to identify all quinoline interacting proteins in a cell or animal lysate. To achieve this, a functional proteomics approach was used as outlined in FIG. 7. In this strategy, three different, yet complementary approaches were conducted to identify and validate targets of the quinolines. In step one, termed displacement affinity chromatography, a specific sub-proteome from a cell is captured on an affinity matrix by virtue of its interaction with an immobilized ligand (FIG. 7, Step 1). The sup-proteome is captured after application of saturating amounts of cell lysate and extensive washing of the resin. The compounds of interest (in this case, the quinolines) are then applied to the matrix in parallel and allowed to interact with the bound proteome. […] In the second step, affinity matrices were created by directly linking the quinoline drugs to Sepharose, and after application of cell lysates, all proteins that specifically eluted from these matrices in the presence of drug were identified (FIG. 7 Step 2).
# [2] = biological target: T1, QR2 (Homo sapiens, UniProt P16083); experiment: hQR2 activity assay, enzyme purified from human RBC (Example 1); type: biochemical; design: Pure hALDH was eluted with 5 mM NADH and pure hQR2 with 5 mM NMeN; tissue Valley Biomedical (blood); host or cells: human red blood cells; conditions: purified hQR2 from human RBC; menadione substrate; read-out: Kd(app)
# T1 sequence (P16083 1-231): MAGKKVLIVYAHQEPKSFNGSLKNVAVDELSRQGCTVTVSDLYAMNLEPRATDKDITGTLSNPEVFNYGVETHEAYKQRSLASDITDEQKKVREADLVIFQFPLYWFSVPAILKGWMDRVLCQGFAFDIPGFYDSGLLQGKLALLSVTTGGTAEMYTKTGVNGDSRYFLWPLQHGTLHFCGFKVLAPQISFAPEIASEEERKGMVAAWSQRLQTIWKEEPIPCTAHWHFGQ
# Protocol: ATP-affinity array chromatography. In whole mouse experiments, the animal (except for its tail, feet, skin and intestines) was frozen in liquid N2 and blended in buffer A containing 50 mM Hepes, pH 7.5, 50 mM NaCl, 10 mM MgCl2, 0.1% NONIDET- P40, 1 mM dithiothreitol, 1 μg/ml leupeptin, 100 μg/ml pefabloc and 10 μg/ml aprotinin. Mouse lysate was clarified by centrifugation for 1 hr at 100,000×g. For infected and non-infected RBC's˜1.5×10^9 cells were mixed with an equal volume of 2×buffer A, rocked for 30 min at 4° C., and clarified by centrifugation for 1 hr at 100,000×g. Supernatants were dialyzed overnight against 50 mM Hepes, pH 7.5, 50 mM NaCl, 10 mM MgCl2 and 1 mM dithiothreitol. […] Lysates were centrifuged twice at 125,000×g for 1 hr at 4° C. […] Pure hALDH was eluted with 5 mM NADH and pure hQR2 with 5 mM NMeN. The eluants were dialyzed overnight at 4° C. against 25 mM Tris pH 8.0 and 1 mM DTT. hALDHl was assayed as described in Table 2. Purified hQR2 was assayed at 22° C. in 100 μM N-methyldihydronicotinamide, 30 μM menadione, 0.1% Triton X-100, 50 mM Tris pH 8.5, 100 μM dicoumarol (unless stated otherwise).
# For QR2 Kd apparent values determined using the expression [formula]
# The Kd was determined as [formula]
# Where Ao=rate in the absence of drug; Aapp=rate+drug; [M]=concentration of menadione.
smiles,measurement,setting,value
"CCN(CC)CCCC(C)Nc1ccnc2cc(Cl)ccc12 (stereo not drawn) [CQ, chloroquine]","proteins eluted from ATP-Sepharose (ALDH1 55 kDa, QR2 26 kDa)","[1]; RBC extract, 5 mM drug (Example 2)",selectively eluted proteins of 55 and 26 kDa
same,proteins eluted from ATP affinity array (hALDH1 and hQR2),"[1]; non-infected red cells, drug at [mM]",selectively eluted two proteins
same,Kd,[2],24 µM
